Key:
[1] = 101.33 kPa, Liquid, Capillary tube (Ostwald / Ubbelohde) method
[2] = xn = mol fraction of the nth substance listed; conditions: 101 kPa, Liquid, Capillary tube (Ostwald / Ubbelohde) method, x1 = 0.364

CC1CCCCC1 [methylcyclohexane]
[1]
Conditions | viscosity [mPa·s]
298.61 K | 0.7341
303.63 K | 0.6844
308.95 K | 0.636
317.71 K | 0.5669
323.66 K | 0.5268
328.77 K | 0.4964
333.69 K | 0.469

FC(F)(F)C1(F)C(F)(F)C(F)(F)C(F)(F)C(F)(F)C1(F)F [perfluoro(methylcyclohexane)]
[1]
Conditions | viscosity [mPa·s]
319.2 K | 1.031
320.16 K | 1.011
323.18 K | 0.9582
328.13 K | 0.8787
333.11 K | 0.8074

FC(F)(F)C1(F)C(F)(F)C(F)(F)C(F)(F)C(F)(F)C1(F)F [perfluoro(methylcyclohexane)] + CC1CCCCC1
[2]
Conditions | viscosity [mPa·s]
320.16 K | 0.7472
320.19 K | 0.728
320.34 K | 0.689
320.5 K | 0.6723
320.74 K | 0.6544
321 K | 0.6428
321.39 K | 0.6292
321.96 K | 0.6151
322.62 K | 0.6018
324.05 K | 0.5798
325.5 K | 0.5617
326.98 K | 0.5452
328.41 K | 0.5313
330.08 K | 0.517
331.6 K | 0.5034
333.21 K | 0.4923
334.85 K | 0.4806
336.69 K | 0.4679
338.48 K | 0.4558
340.38 K | 0.4438
